In patent US7807676B2, “Diketo-Piperazine and Piperidine derivatives as antiviral agents” (priority 2006, dated 2010):
pEC50: −log10 of the molar value.

The compounds below were run on HIV-1 single-round infectious reporter virus (assay: Single-round infectious HIV-1 luciferase reporter virus infection of HeLa CD4 cells (antiviral EC50)). Conditions: Human immunodeficiency virus 1, HeLa, read-out: EC50 Group from Table 3.
Type: cell-based
Summary of the method: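 Env-pseudotyped single-round HIV-1 reporter virus (env-deleted provirus with luciferase in place of nef, made in 293 cells) infected HeLa CD4 cells at MOI ~0.01 with compound present, up to 10 μM final. Luciferase luminescence read after 72 h at 37 °C; EC50 from four-parameter logistic fit of % inhibition over 10 concentrations.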

Row | Structure (SMILES) | pEC50
1 | CN(C)c1nc(N2CCN(C(=O)C(=O)c3c[nH]c4c(-n5ccnn5)ncc(F)c34)CC2)n(-c2ccccc2)n1 [G-4a] | > 6.30
2 | COc1cnc(-n2cnc(C)n2)c2[nH]cc(C(=O)C(=O)N3CCN(c4nc(N(C)C)nn4-c4ccccc4)CC3)c12 [G-4b] | > 6.30
3 | CN(C)c1nc(N2CCN(C(=O)C(=O)c3c[nH]c4c(-n5ccnn5)ncc(F)c34)CC2)nn1-c1ccccc1 [G-4c] | < 6.30
4 | COc1cnc(-n2cnc(C)n2)c2[nH]cc(C(=O)C(=O)N3CCN(c4nc(N(C)C)n(-c5ccccc5)n4)CC3)c12 [G-4d] | > 6.30
5 | O=C(C(=O)N1CCN(c2c[nH]nc2-c2ccccc2)CC1)c1c[nH]c2c(-n3ccnn3)ncc(F)c12 [G-5a] | > 6.30
6 | COc1cnc(-n2cnc(C)n2)c2[nH]cc(C(=O)C(=O)N3CCN(c4c[nH]nc4-c4ccccc4)CC3)c12 [G-5b] | > 6.30
7 | COc1cnc(-n2cnc(C)n2)c2[nH]cc(C(=O)C(=O)N3CCN(c4cn(CCN(C)C)nc4-c4ccccc4)CC3)c12 [G-6a] | > 6.30
8 | CN(C)CCn1cc(N2CCN(C(=O)C(=O)c3c[nH]c4c(-n5ccnn5)ncc(F)c34)CC2)c(-c2ccccc2)n1 [G-6b] | > 6.30
9 | COc1cnc(-n2cnc(C)n2)c2[nH]cc(C(=O)C(=O)N3CCN(c4cn(Cc5ccccn5)nc4-c4ccccc4)CC3)c12 [G-7a] | > 6.30
10 | O=C(C(=O)N1CCN(c2cn(Cc3ccccn3)nc2-c2ccccc2)CC1)c1c[nH]c2c(-n3ccnn3)ncc(F)c12 [G-7b] | > 6.30
11 | O=C(C(=O)N1CCN(c2[nH]nnc2-c2ccccc2)CC1)c1c[nH]c2c(-n3ccnn3)ncc(F)c12 [G-8a] | > 6.30
12 | COc1cnc(-n2cnc(C)n2)c2[nH]cc(C(=O)C(=O)N3CCN(c4[nH]nnc4-c4ccccc4)CC3)c12 [G-8b] | > 6.30
13 | COc1cnc(-n2cnc(C)n2)c2[nH]cc(C(=O)C(=O)N3CCN(c4ccnn4-c4ccccc4)CC3)c12 [G-9a] | > 6.30
14 | O=C(C(=O)N1CCN(c2ccnn2-c2ccccc2)CC1)c1c[nH]c2c(-n3ccnn3)ncc(F)c12 [G-9b] | > 6.30
15 | O=C(C(=O)N1CCC(N2CCN=C2c2ccccc2)CC1)c1c[nH]c2c(-n3ccnn3)ncc(F)c12 [G-10a] | < 6.30
16 | COc1cnc(-n2cnc(C)n2)c2[nH]cc(C(=O)C(=O)N3CCC(N4CCN=C4c4ccccc4)CC3)c12 [G-10b] | < 6.30
17 | O=C(C(=O)N1CCC(n2ccnc2-c2ccccc2)CC1)c1c[nH]c2c(-n3ccnn3)ncc(F)c12 [G-11a] | > 6.30
18 | COc1cnc(-n2cnc(C)n2)c2[nH]cc(C(=O)C(=O)N3CCC(n4ccnc4-c4ccccc4)CC3)c12 [G-11b] | < 6.30
19 | O=C(C(=O)N1CCN(C2=NCCN2c2ccccc2)CC1)c1c[nH]c2c(-n3ccnn3)ncc(F)c12 [G-12a] | > 6.30
20 | COc1cnc(-n2cnc(C)n2)c2[nH]cc(C(=O)C(=O)N3CCN(C4=NCCN4c4ccccc4)CC3)c12 [G-12b] | > 6.30
21 | Cn1ncc(N2CCN(C(=O)C(=O)c3c[nH]c4c(-n5ccnn5)ncc(F)c34)CC2)c1-c1ccccc1 [G-13a] | > 6.30
22 | COc1cnc(-n2cnc(C)n2)c2[nH]cc(C(=O)C(=O)N3CCN(c4cnn(C)c4-c4ccccc4)CC3)c12 [G-13b] | > 6.30
23 | CN(C)c1cc(N2CCN(C(=O)C(=O)c3c[nH]c4c(-n5ccnn5)ncc(F)c34)CC2)c(-c2ccccc2)nn1 [G-14a] | > 6.30

Row | Structure (SMILES) | pEC50
24 | COc1cnc(-n2cnc(C)n2)c2[nH]cc(C(=O)C(=O)N3CCN(c4cc(N(C)C)nnc4-c4ccccc4)CC3)c12 [G-14b] | > 6.30
25 | O=C(C(=O)N1CCN(c2ccnnc2-c2ccccc2)CC1)c1c[nH]c2c(-n3ccnn3)ncc(F)c12 [G-15a] | > 6.30
26 | COc1cnc(-n2cnc(C)n2)c2[nH]cc(C(=O)C(=O)N3CCN(c4ccnnc4-c4ccccc4)CC3)c12 [G-15b] | > 6.30
27 | O=C(C(=O)N1CCN(c2cn(CCN3CCOCC3)nc2-c2ccccc2)CC1)c1c[nH]c2c(-n3ccnn3)ncc(F)c12 [G-16] | > 6.30
28 | O=C(C(=O)N1CCC(C2=NCCN2c2ccccc2)CC1)c1c[nH]c2c(-n3ccnn3)ncc(F)c12 [G-17a] | < 6.30
29 | COc1cnc(-n2cnc(C)n2)c2[nH]cc(C(=O)C(=O)N3CCC(C4=NCCN4c4ccccc4)CC3)c12 [G-17b] | > 6.30
30 | O=C(C(=O)N1CCC(c2nccn2-c2ccccc2)CC1)c1c[nH]c2c(-n3ccnn3)ncc(F)c12 [G-18a] | > 6.30
31 | COc1cnc(-n2cnc(C)n2)c2[nH]cc(C(=O)C(=O)N3CCC(c4nccn4-c4ccccc4)CC3)c12 [G-18b] | > 6.30
32 | O=C(C(=O)N1CCN(c2cncnc2-c2ccccc2)CC1)c1c[nH]c2c(-n3ccnn3)ncc(F)c12 [G-19a] | > 6.30
33 | COc1cnc(-n2cnc(C)n2)c2[nH]cc(C(=O)C(=O)N3CCN(c4cncnc4-c4ccccc4)CC3)c12 [G-19b] | > 6.30
34 | CCOC(=O)Cn1cc(N2CCN(C(=O)C(=O)c3c[nH]c4c(-n5ccnn5)ncc(F)c34)CC2)c(-c2ccccc2)n1 [G-20] | > 6.30
35 | COc1cnc(-n2cnc(C)n2)c2[nH]cc(C(=O)C(=O)N3CCN(c4cn(CC#N)nc4-c4ccccc4)CC3)c12 [G-21] | > 6.30
36 | O=C(C(=O)N1CCN(c2cnnn2-c2ccccn2)CC1)c1c[nH]c2c(-n3ccnn3)ncc(F)c12 [G-22a] | > 6.30
37 | COc1cnc(-n2cnc(C)n2)c2[nH]cc(C(=O)C(=O)N3CCN(c4cnnn4-c4ccccn4)CC3)c12 [G-22b] | > 6.30
38 | COc1cnc(-n2cnc(C)n2)c2[nH]cc(C(=O)C(=O)N3CCN(c4nn(C)nc4-c4ccccc4)CC3)c12 [G-23] | > 6.30
39 | O=C(C(=O)N1CCN(c2nn[nH]c2-c2ccccn2)CC1)c1c[nH]c2c(-n3ccnn3)ncc(F)c12 [G-24a] | > 6.30
40 | COc1cnc(-n2cnc(C)n2)c2[nH]cc(C(=O)C(=O)N3CCN(c4nn[nH]c4-c4ccccn4)CC3)c12 [G-24b] | > 6.30
41 | O=C(C(=O)N1CCN(c2nn[nH]c2-c2nccs2)CC1)c1c[nH]c2c(-n3ccnn3)ncc(F)c12 [G-25a] | > 6.30
42 | COc1cnc(-n2cnc(C)n2)c2[nH]cc(C(=O)C(=O)N3CCN(c4nn[nH]c4-c4nccs4)CC3)c12 [G-25b] | > 6.30
43 | CSc1nc(N2CCN(C(=O)C(=O)c3c[nH]c4c(-n5ccnn5)ncc(F)c34)CC2)n(-c2ccccc2)n1 [G-26a] | > 6.30
44 | COc1cnc(-n2cnc(C)n2)c2[nH]cc(C(=O)C(=O)N3CCN(c4nc(SC)nn4-c4ccccc4)CC3)c12 [G-26b] | > 6.30
45 | O=C(C(=O)N1CCN(c2ncnn2-c2ccccc2)CC1)c1c[nH]c2c(-n3ccnn3)ncc(F)c12 [G-27a] | > 6.30
46 | COc1cnc(-n2cnc(C)n2)c2[nH]cc(C(=O)C(=O)N3CCN(c4ncnn4-c4ccccc4)CC3)c12 [G-27b] | > 6.30

Row | Structure (SMILES) | pEC50
47 | CS(=O)(=O)c1nc(N2CCN(C(=O)C(=O)c3c[nH]c4c(-n5ccnn5)ncc(F)c34)CC2)n(-c2ccccc2)n1 [G-28a] | > 6.30
48 | COc1cnc(-n2cnc(C)n2)c2[nH]cc(C(=O)C(=O)N3CCN(c4nc(S(C)(=O)=O)nn4-c4ccccc4)CC3)c12 [G-28b] | > 6.30
49 | COc1nc(N2CCN(C(=O)C(=O)c3c[nH]c4c(-n5ccnn5)ncc(F)c34)CC2)n(-c2ccccc2)n1 [G-29a] | > 6.30
50 | COc1nc(N2CCN(C(=O)C(=O)c3c[nH]c4c(-n5cnc(C)n5)ncc(OC)c34)CC2)n(-c2ccccc2)n1 [G-29b] | > 6.30
51 | O=C(C(=O)N1CCN(c2cnnn2-c2ccccc2)CC1)c1c[nH]c2c(-n3ccnn3)ncc(F)c12 [G-30a] | > 6.30
52 | COc1cnc(-n2cnc(C)n2)c2[nH]cc(C(=O)C(=O)N3CCN(c4cnnn4-c4ccccc4)CC3)c12 [G-30b] | > 6.30
53 | COc1cnc(-n2cc(C)nn2)c2[nH]cc(C(=O)C(=O)N3CCN(c4nnnn4-c4ccccn4)CC3)c12 [G-31] | > 6.30
54 | Cc1nc(N2CCN(C(=O)C(=O)c3c[nH]c4c(-n5ccnn5)ncc(F)c34)CC2)n(-c2ccccc2)n1 [G-32] | > 6.30
55 | COc1cnc(-c2cncc(F)c2)c2[nH]cc(C(=O)C(=O)N3CCN(c4nnnn4-c4ccccn4)CC3)c12 [H-1] | > 6.30
56 | COc1cnc(-c2cccnc2F)c2[nH]cc(C(=O)C(=O)N3CCN(c4nnnn4-c4ccccn4)CC3)c12 [H-2] | > 6.30
57 | COc1cnc(-c2cccnc2)c2[nH]cc(C(=O)C(=O)N3CCN(c4nnnn4-c4ccccn4)CC3)c12 [H-3] | > 6.30
58 | COc1cnc(-c2cccnc2Cl)c2[nH]cc(C(=O)C(=O)N3CCN(c4nnnn4-c4ccccn4)CC3)c12 [H-4] | > 6.30
59 | COc1cnccc1-c1ncc(OC)c2c(C(=O)C(=O)N3CCN(c4nnnn4-c4ccccn4)CC3)c[nH]c12 [H-5] | > 6.30
60 | COc1ccncc1-c1ncc(OC)c2c(C(=O)C(=O)N3CCN(c4nnnn4-c4ccccn4)CC3)c[nH]c12 [H-6] | > 6.30
61 | COc1cnc(-c2cnccc2C)c2[nH]cc(C(=O)C(=O)N3CCN(c4nnnn4-c4ccccn4)CC3)c12 [H-7] | > 6.30
62 | COc1cnc(-c2ccnc(F)c2)c2[nH]cc(C(=O)C(=O)N3CCN(c4nnnn4-c4ccccn4)CC3)c12 [H-8] | > 6.30
63 | COc1cnc(-c2ccc(N)nc2)c2[nH]cc(C(=O)C(=O)N3CCN(c4nnnn4-c4ccccn4)CC3)c12 [H-9] | > 6.30
64 | COc1ccc(-c2ncc(OC)c3c(C(=O)C(=O)N4CCN(c5nnnn5-c5ccccn5)CC4)c[nH]c23)cn1 [H-10] | > 6.30
65 | COc1cnc(-c2ccc(C#N)nc2)c2[nH]cc(C(=O)C(=O)N3CCN(c4nnnn4-c4ccccn4)CC3)c12 [H-11] | > 6.30
66 | COc1cnc(-c2ccnc(C)c2)c2[nH]cc(C(=O)C(=O)N3CCN(c4nnnn4-c4ccccn4)CC3)c12 [H-12] | > 6.30
67 | COc1cnc(-c2ccc(F)nc2)c2[nH]cc(C(=O)C(=O)N3CCN(c4nnnn4-c4ccccn4)CC3)c12 [H-13] | > 6.30
